This data set has as its system sensor cells. The data set is described as follows: Impedance response of a sensor with photosensitive living cells to light pulses on exposure to a cytotoxin (FIG. 9). Format: cell-based. Particulars: toxin sample vs. clean sample, optically stimulated sensor cells. From the text:
FIG. 2 illustrates an exemplary behavior of sensor cells when exposed to light according to some embodiments of the present invention. Some embodiments employ sensor cells which are genetically modified to express an opsin (e.g., channel rhodopsin, without loss of generality), and/or other channel proteins with a role in maintaining cellular homeostasis (e.g., potassium channel ROMK1, without loss of generality). In the illustrated example, exposure to light induces a sudden intake of sodium ions through the cell membrane, which may substantially change the membrane potential and therefore the measured impedance of the respective cell. […]
FIGS. 4-A-B show exemplary impedance responses of a sensor to a single light pulse and to a pulse train, respectively, according to some embodiments of the present invention wherein the sensor is prepared to contain cells having optically-sensitive ion channels. As the cellular membrane potential changes in response to the light pulse(s), the change is registered in the measured impedance of the sensor. […] This observation enables some embodiments of the present invention to detect and/or quantitate the target analyte from time series of impedance measurements. […]
A step 120 acquires a target impedance time series comprising a plurality of values, at least two of which are determined at distinct moments in time. […]

For `C[C@@H]1O[C@@H](O[C@H]2C[C@@H](O)[C@]3(CO)[C@H]4[C@H](O)C[C@]5(C)[C@@H](C6=CC(=O)OC6)CC[C@]5(O)[C@@H]4CC[C@]3(O)C2)[C@H](O)[C@H](O)[C@H]1O` [ouabain], the “response of the sensor to exposure to a cytotoxin (impedance response, membrane repolarization after light pulses)” value was “visible modifications of cell homeostasis”.

(Values after US11680939B2, “Systems and methods for detecting bioactive compounds using sensors with pre-stimulated cells” (priority 2019, dated 2023).)
